The target of one assay is T1, TNKS2 (Homo sapiens, UniProt Q9H2K2).
T1 construct: GST-tagged Tnks-2 (873-1166 aa, prepared in-house); made in house
The assay is described as follows: TNKS2 activity ELISA (autoparsylation assay). It counts as biochemical. How it is done:
(§1) Description of the TNKS1 and TNKS2 ELISA Assay
(§2) Biochemical Activity Testing of TNKS 1 and 2: Activity ELISA (Autoparsylation Assay)
(§3) For analysis of autoparsylation activity of TNKS 1 and 2 an activity ELISA iss performed: In the first step GST tagged TNKS is captured on a Glutathione coated plate. Then the activity assay with biotinylated NAD is performed in the absence/presence of the compounds. During the enzymatic reaction GST tagged TNKS transfers biotinylated ADP-ribose to itself from biotinylated NAD as co-substrate. For the detection streptavidin-HRP conjugate is added that binds to the biotinylated TNKS and is thereby captured to the plates. The amount of biotinylated resp. autoparsylated TNKS is detected with a luminescence substrate for HRP. The level of the luminescence signal correlates directly with the amount of autoparsylated TNKS and therefore with activity of TNKS.
(§4) The activity ELISA is performed in 384 well Glutathione coated microtiter plates (Express capture Glutathione coated plate, Biocat, Heidelberg, Germany). The plates are pre-equilibrated with PBS. […] The plates are washed 3 times with PBS-Tween-20. The wells are blocked by incubation at room temperature for 20 minutes with 50 μl blocking buffer (PBS, 0.05% Tween-20, 0.5% BSA). Afterwards the plates are washed 3 times with PBS-Tween-20. […] The reaction is stopped by 3 times washing with PBS-Tween-20. For the detection 50 μl of 20 ng/μl Streptavidin, HRP conjugate (MoBiTec, Göttingen, Germany) in PBS/0.05% Tween-20/0.01% BSA are added and the plates are incubated for 30 minutes at room temperature. After three times washing with PBS-Tween-20 50 μl of SuperSignal ELISA Femto Maximum sensitivity substrate solution (ThermoFisherScientific (Pierce), Bonn, Germany) are added. Following a 1 minute incubation at room temperature luminescence signals are measured with an Envision multimode reader (Perkin Elmer LAS Germany GmbH) at 700 nm. The full value used is the inhibitor-free reaction. […] The inhibitory values (IC50) are determined using either the program Symyx Assay Explorer® or Condosseo® from GeneData.

The target of another assay is T2, PARP-1 (Homo sapiens, UniProt P09874).
T2 construct: purchased Enzo Life Sciences GmbH, Lörrach, Germany
As to the kind of experiment: PARP-1 autoparsylation assay (HTRF). Format: biochemical. To be noted: His-tagged Parp-1, autoparsylation.

The next assay deals with T3, Tankyrase.
T3 construct: TNKS cellular assay; other: DLD1 cells, Axin2 increase, 24 hours
The assay is described as follows: Measurement of cellular inhibition of Tankyrase (Axin2 level in DLD1 cells, Luminex based assay). To be noted: read-out: EC50 [M] TNKS cellular assay; DLD1 cells, Axin2 increase, 24 hours. Format: cell-based. How it is done:
Measurement of Cellular Inhibition of Tankyrase
Cells of the colon carcinoma cell line DLD1 are plated in 96 well plates with 1.5×10^4 cells per well. Next day, cells are treated with a serial dilution of test compound in seven steps as triplicates with a final DMSO concentration of 0.3%. […] The amount of isolated Axin2 protein is determined in a Luminex^200 machine (Luminex Corporation) according to the manufacturer's instruction by counting 100 events per well. […] As controls cells are treated with solvent alone (neutral control) and with a Tankyrase reference inhibitor IWR-2 (3E-06 M) which refers as control for maximum increase of Axin2. For analysis, the obtained data are normalized against the untreated solvent control and fitted for determination of the EC50 values using the Assay Explorer software (Accelrys).

The next assay has as its target T4, TNKS1 (Homo sapiens, UniProt O95271).
T4 construct: GST-tagged Tnks-1 (1023-1327 aa, prepared in-house); made in house
As to the kind of experiment: TNKS1 activity ELISA (autoparsylation assay). It counts as biochemical. As for the experimental part: as §1, §2, §3, §4

Where [1] appears, read: GST-tagged Tnks-2, read-out: IC50 [M] TNKS2 ELISA.
The mark [2] stands for this setting: GST-tagged Tnks-1, read-out: IC50 [M] TNKS1 ELISA.

Read-outs that look alike come from different tables or passages of the source.

T4 sequence (O95271 1023-1327): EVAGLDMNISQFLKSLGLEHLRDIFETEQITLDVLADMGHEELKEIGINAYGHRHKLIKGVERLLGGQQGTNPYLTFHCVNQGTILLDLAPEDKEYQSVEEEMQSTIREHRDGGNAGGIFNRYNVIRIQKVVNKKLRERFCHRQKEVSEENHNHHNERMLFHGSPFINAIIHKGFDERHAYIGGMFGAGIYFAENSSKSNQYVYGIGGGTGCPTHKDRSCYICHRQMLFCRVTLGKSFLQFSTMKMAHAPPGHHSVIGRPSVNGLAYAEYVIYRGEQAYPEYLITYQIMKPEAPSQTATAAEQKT
T1 sequence (Q9H2K2 873-1166): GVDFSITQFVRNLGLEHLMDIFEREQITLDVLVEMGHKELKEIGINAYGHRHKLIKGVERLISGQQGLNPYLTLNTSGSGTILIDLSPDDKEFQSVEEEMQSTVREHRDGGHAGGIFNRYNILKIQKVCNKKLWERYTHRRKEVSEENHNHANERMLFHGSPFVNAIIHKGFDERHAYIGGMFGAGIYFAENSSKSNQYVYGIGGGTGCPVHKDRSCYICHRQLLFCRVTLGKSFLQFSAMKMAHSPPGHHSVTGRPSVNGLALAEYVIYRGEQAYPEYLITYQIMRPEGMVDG
T2 sequence (P09874 whole entry): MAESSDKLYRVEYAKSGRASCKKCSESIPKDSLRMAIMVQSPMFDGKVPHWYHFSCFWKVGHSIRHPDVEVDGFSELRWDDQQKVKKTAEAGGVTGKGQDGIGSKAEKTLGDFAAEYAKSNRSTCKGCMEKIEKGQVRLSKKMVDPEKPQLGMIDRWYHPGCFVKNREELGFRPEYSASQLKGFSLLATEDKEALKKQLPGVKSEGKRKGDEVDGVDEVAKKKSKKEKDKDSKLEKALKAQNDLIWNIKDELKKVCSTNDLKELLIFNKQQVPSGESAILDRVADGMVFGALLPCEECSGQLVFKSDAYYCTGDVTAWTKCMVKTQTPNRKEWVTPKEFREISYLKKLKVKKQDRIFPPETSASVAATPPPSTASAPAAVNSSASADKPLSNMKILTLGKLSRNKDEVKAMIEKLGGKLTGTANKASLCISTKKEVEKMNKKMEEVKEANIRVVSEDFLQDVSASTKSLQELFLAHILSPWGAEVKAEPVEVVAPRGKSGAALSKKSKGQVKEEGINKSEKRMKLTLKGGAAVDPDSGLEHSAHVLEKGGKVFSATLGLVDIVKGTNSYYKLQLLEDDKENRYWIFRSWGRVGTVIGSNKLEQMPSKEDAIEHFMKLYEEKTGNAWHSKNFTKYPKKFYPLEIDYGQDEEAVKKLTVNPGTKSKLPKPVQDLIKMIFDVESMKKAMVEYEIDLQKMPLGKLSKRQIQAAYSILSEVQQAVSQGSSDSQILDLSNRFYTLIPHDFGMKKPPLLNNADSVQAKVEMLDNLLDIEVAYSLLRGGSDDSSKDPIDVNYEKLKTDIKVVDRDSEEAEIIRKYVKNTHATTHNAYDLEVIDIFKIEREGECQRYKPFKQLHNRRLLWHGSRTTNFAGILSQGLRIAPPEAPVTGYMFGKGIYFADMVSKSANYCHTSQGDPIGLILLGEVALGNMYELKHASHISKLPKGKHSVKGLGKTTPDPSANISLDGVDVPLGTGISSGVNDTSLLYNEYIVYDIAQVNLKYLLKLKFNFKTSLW

Take `COc1ccc(C(=O)C2CCN(C(=O)CCCc3nc4ccccc4c(=O)[nH]3)CC2)cc1` [Compound A1, 2-{4-[4-(4-methoxy-benzoyl)-piperidin-1-yl]-4-oxo-butyl}-3H-quinazolin-4-one]: the IC50 against TNKS2 is 1.1e-10 M; at PARP-1 it was 1400 nM; at TNKS1, 2.3e-10 M. Also, in the assay with Tankyrase, the EC50 was determined as 1.6e-09 M.

As for `O=C(c1ccccc1)C1CCN(C(=O)CCCc2nc3ccccc3c(=O)[nH]2)CC1` [Compound A2, 2-[4-(4-benzoyl-piperidin-1-yl)-4-oxo-butyl]-3H-quinazolin-4-one], the results for the IC50 at TNKS2 (setting [1]), against PARP-1 and at TNKS1 (setting [2]) were 5.5e-10 M, 730 nM and 7.3e-10 M, respectively. Moreover, the EC50 in the assay on Tankyrase came out at 6.5e-08 M.

With `Cc1cc(F)cc2c(=O)[nH]c(CCCC(=O)N3CCC(C(=O)c4ccccc4)CC3)nc12` [Compound A3, 2-[4-(4-benzoyl-piperidin-1-yl)-4-oxo-butyl]-6-fluoro-8-methyl-3H-quinazolin-4-one], the IC50 worked out at 1.3e-10 M on TNKS2 (setting [1]), 29 nM against PARP-1 and 2.2e-10 M at TNKS1 (setting [2]). Also, the EC50 with Tankyrase is 3.4e-09 M.

In the case of `COc1ccc(C(=O)C2CCN(C(=O)CCCc3nc4c(C)cc(F)cc4c(=O)[nH]3)CC2)cc1` [Compound A4, 6-fluoro-2-{4-[4-(4-methoxy-benzoyl)-piperidin-1-yl]-4-oxo-butyl}-8-methyl-3H-quinazolin-4-one], the IC50 on TNKS2 (setting [1]) is 8.9e-11 M; at PARP-1 it was 170 nM; on TNKS1 (setting [2]), 6.6e-11 M. In the assay on Tankyrase, the EC50 was found to be 5.6e-10 M.

For `COc1ccc(C(=O)C2CCN(C(=O)CCCc3nc4c(F)cc(F)cc4c(=O)[nH]3)CC2)cc1` [Compound A5, 6,8-difluoro-2-{4-[4-(4-methoxy-benzoyl)-piperidin-1-yl]-4-oxo-butyl}-3H-quinazolin-4-one], the values for the IC50 at TNKS2 (setting [1]), against PARP-1 and on TNKS1 (setting [2]) were 1.6e-10 M, 780 nM and 8.7e-11 M, respectively. The EC50 with Tankyrase came to 2.6e-09 M.

`O=C(c1ccccc1)C1CCN(C(=O)CCCc2nc3c(F)cc(F)cc3c(=O)[nH]2)CC1` [Compound A6, 2-[4-(4-benzoyl-piperidin-1-yl)-4-oxo-butyl]-6,8-difluoro-3H-quinazolin-4-one]: the figures for the IC50 on TNKS2 (setting [1]), at PARP-1 and at TNKS1 (setting [2]) were 9.3e-10 M, 650 nM and 3.8e-10 M, respectively.

Regarding `Cc1cccc(C(=O)C2CCN(C(=O)CCCc3nc4ccccc4c(=O)[nH]3)CC2)c1` [Compound A7, 2-{4-[4-(3-methyl-benzoyl)-piperidin-1-yl]-4-oxo-butyl}-3H-quinazolin-4-one], the IC50 against TNKS2 turned out to be 1.9e-10 M; against PARP-1 it was 810 nM; at TNKS1, 2.2e-10 M. Further, in the assay with Tankyrase, the EC50 was 2e-08 M.

On to `COc1ccc(C(=O)C2CCN(C(=O)CCCc3nc4ccccc4c(=O)[nH]3)CC2)cc1F` [Compound A8, 2-{4-[4-(3-fluoro-4-methoxy-benzoyl)-piperidin-1-yl]-4-oxo-butyl}-3H-quinazolin-4-one], for which the figures for the IC50 on TNKS2 (setting [1]), against PARP-1 and at TNKS1 (setting [2]) were 1.5e-10 M, 680 nM and 8.5e-11 M, respectively. Also, the EC50 with Tankyrase was determined as 3.4e-09 M.

With `COc1cccc(C(=O)C2CCN(C(=O)CCCc3nc4ccccc4c(=O)[nH]3)CC2)c1` [Compound A9, 2-{4-[4-(3-methoxy-benzoyl)-piperidin-1-yl]-4-oxo-butyl}-3H-quinazolin-4-one], the results for the IC50 on TNKS2 (setting [1]), against PARP-1 and at TNKS1 (setting [2]) were 3.3e-10 M, 740 nM and 1.9e-10 M, respectively. Further, the EC50 in the assay with Tankyrase was 1.9e-08 M.

As to `CCn1cc(-c2ccc(C(=O)C3CCN(C(=O)CCCc4nc5ccccc5c(=O)[nH]4)CC3)cc2)cn1` [Compound A10, 2-(4-{4-[4-(1-ethyl-1H-pyrazol-4-yl)-benzoyl]-piperidin-1-yl}-4-oxo-butyl)-3H-quinazolin-4-one], the IC50 against TNKS2 came to 1.6e-10 M; at PARP-1 it was 100 nM; on TNKS1, 1e-10 M. Further, the EC50 in the assay with Tankyrase worked out at 4.9e-09 M.

Turning to `COCCn1cc(-c2ccc(C(=O)C3CCN(C(=O)CCCc4nc5ccccc5c(=O)[nH]4)CC3)cc2)cn1` [Compound A11, 2-[4-(4-{4-[1-(2-methoxy-ethyl)-1H-pyrazol-4-yl]-benzoyl}-piperidin-1-yl)-4-oxo-butyl]-3H-quinazolin-4-one], the IC50 amounted to 1.2e-10 M at TNKS2 (setting [1]), 300 nM against PARP-1 and 5.8e-11 M on TNKS1 (setting [2]). In addition, in the assay on Tankyrase, the EC50 worked out at 7.3e-09 M.

Consider `O=C(c1ccc(-c2cnn(CCN3CCCC3)c2)cc1)C1CCN(C(=O)CCCc2nc3ccccc3c(=O)[nH]2)CC1` [Compound A12, 2-[4-oxo-4-(4-{4-[1-(2-pyrrolidin-1-yl-ethyl)-1H-pyrazol-4-yl]-benzoyl}-piperidin-1-yl)-butyl]-3H-quinazolin-4-one], for which the IC50 came to 3.5e-10 M on TNKS2 (setting [1]), 650 nM on PARP-1 and 2.5e-10 M on TNKS1 (setting [2]). The EC50 in the assay with Tankyrase turned out to be 6.8e-09 M.

On to `COc1ccc(C(=O)C2CCN(C(=O)CCCc3nc4ccccc4c(=O)[nH]3)CC2)cc1C` [Compound A13, 2-[4-[4-(4-methoxy-3-methyl-benzoyl)-1-piperidyl]-4-oxo-butyl]-3H-quinazolin-4-one], for which the IC50 was found to be 1.3e-10 M on TNKS2 (setting [1]), 990 nM at PARP-1 and 1e-10 M on TNKS1 (setting [2]). Besides, the EC50 in the assay with Tankyrase amounted to 8.6e-10 M.

As to `COc1ccc(C(=O)C2CCN(C(=O)CCCc3nc4c(F)cc(F)cc4c(=O)[nH]3)CC2)cc1C` [Compound A14, 6,8-difluoro-2-[4-[4-(4-methoxy-3-methyl-benzoyl)-1-piperidyl]-4-oxo-butyl]-3H-quinazolin-4-one], the IC50 stood at 1.6e-10 M on TNKS2 (setting [1]), 1000 nM against PARP-1 and 8.6e-11 M at TNKS1 (setting [2]). Also, the EC50 with Tankyrase worked out at 3.3e-09 M.

With `COc1ccc(C(=O)C2CCN(C(=O)CCCc3nc4c(C)cc(F)cc4c(=O)[nH]3)CC2)cc1C` [Compound A15, 6-fluoro-2-[4-[4-(4-methoxy-3-methyl-benzoyl)-1-piperidyl]-4-oxo-butyl]-8-methyl-3H-quinazolin-4-one], the IC50 on TNKS2 (setting [1]) was 7.4e-11 M; at PARP-1, 64 nM; on TNKS1 (setting [2]) it was 8.8e-11 M. For the same compound, in the assay with Tankyrase, the EC50 amounted to 1.4e-09 M.

Turning to `O=C(c1ccc(F)cc1)C1CCN(C(=O)CCCc2nc3ccc(F)cc3c(=O)[nH]2)CC1` [Compound A23, 6-Fluoro-2-{4-[4-(4-fluoro-benzoyl)-piperidin-1-yl]-4-oxo-butyl}-3H-quinazolin-4-one], the IC50 was found to be 5.9e-10 M at TNKS2 (setting [1]), 650 nM against PARP-1 and 8.4e-10 M at TNKS1 (setting [2]).

For the compound `CC(C)(O)c1ccc(C(=O)C2CCN(C(=O)CCCc3nc4c(F)cccc4c(=O)[nH]3)CC2)cc1` [Compound A37, 8-Fluoro-2-(4-{4-[4-(1-hydroxy-1-methyl-ethyl)-benzoyl]-piperidin-1-yl}-4-oxo-butyl)-3H-quinazolin-4-one], the IC50 against PARP-1 worked out at 4300 nM; on TNKS1 (setting [2]), 1.1e-08 M.

With `CC(C)(O)c1ccc(C(=O)C2CCN(C(=O)CCCc3nc4ccccc4c(=O)[nH]3)CC2)cc1` [Compound A38, 2-(4-{4-[4-(1-Hydroxy-1-methyl-ethyl)-benzoyl]-piperidin-1-yl}-4-oxo-butyl)-3H-quinazolin-4-one], the IC50 on TNKS2 (setting [1]) came out at 8.4e-09 M; on PARP-1, 430 nM; at TNKS1 (setting [2]), 2.2e-08 M.

For `CC(C)(O)c1ccc(C(=O)C2CCN(C(=O)CCCc3nc4ccc(F)cc4c(=O)[nH]3)CC2)cc1` [Compound A39, 6-Fluoro-2-(4-{4-[4-(1-hydroxy-1-methyl-ethyl)-benzoyl]-piperidin-1-yl}-4-oxo-butyl)-3H-quinazolin-4-one], the IC50 came out at 270 nM against PARP-1 and 9.6e-09 M at TNKS1 (setting [2]).

In the case of `Cn1ccnc1C(=O)C1CCN(C(=O)CCCc2nc3ccccc3c(=O)[nH]2)CC1` [Compound A40, 2-{4-[4-(1-methyl-1H-imidazole-2-carbonyl)-piperidin-1-yl]-4-oxo-butyl}-3H-quinazolin-4-one], the IC50 was determined as 6.1e-08 M on TNKS2 (setting [1]), 3200 nM on PARP-1 and 8.2e-08 M at TNKS1.
